Results published in BindingDB's records for doi:10.7270/Q2F18X40 (Nmmlsc, 2009).

Molecular target: Ras-related protein Rab-7a (Canis lupus familiaris, UniProt P18067)
Assay: analogs blocking nucleotide binding to wildtype Rab7 – biochemical, oxadiazole analogs, multiplex bead flow cytometry, SAR follow-up (AID 2031)
Conditions: inactive by the depositor's call

Chain of Ras-related protein Rab-7a (P18067 whole entry): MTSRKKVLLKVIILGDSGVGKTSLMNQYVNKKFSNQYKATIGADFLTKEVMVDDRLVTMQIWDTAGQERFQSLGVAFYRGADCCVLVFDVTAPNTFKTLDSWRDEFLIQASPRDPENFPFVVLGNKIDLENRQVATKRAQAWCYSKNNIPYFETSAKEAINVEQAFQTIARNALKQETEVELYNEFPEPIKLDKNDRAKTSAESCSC

| EC50 | Structure (SMILES) |
| --- | --- |
| 3.43 µM | COc1cccc(-c2noc(CCC(=O)N3CCN(c4cc(C)ccc4C)CC3)n2)c1 |
| 5.46 µM | Cc1ccc(C)c(N2CCN(C(=O)CCc3nc(-c4ccccc4C)no3)CC2)c1 |
| 31 µM | COc1ccc(-c2noc(CCC(=O)N3CCN(c4cccc(Cl)c4)CC3)n2)cc1 |
| 30 µM | Cc1ccc(C)c(N2CCN(C(=O)CCc3nc(-c4ccccc4C(F)(F)F)no3)CC2)c1 |
| 30 µM | COc1ccc(-c2noc(CCC(=O)N3CCN(c4ccccc4C)CC3)n2)cc1 |
| 30 µM | COc1ccc(-c2ccc(CCC(=O)N3CCN(c4cc(C)ccc4C)CC3)s2)cc1 |
| 1.56 µM | COc1ccc(-c2noc(CCC(=O)N3CCN(c4cccc(C)c4C)CC3)n2)cc1 [1-[4-(2,3-dimethylphenyl)-1-piperazinyl]-3-[3-(4-methoxyphenyl)-1,2,4-oxadiazol-5-yl]-1-propanone] |
| 2.39 µM | COc1ccc(-c2noc(CCC(=O)N3CCN(c4cc(C)ccc4C)CC3)n2)cc1 [1-[4-(2,5-dimethylphenyl)-1-piperazinyl]-3-[3-(4-methoxyphenyl)-1,2,4-oxadiazol-5-yl]-1-propanone] |
| 4.39 µM | Cc1ccc(-c2noc(CCC(=O)N3CCN(c4cc(C)ccc4C)CC3)n2)cc1 [1-[4-(2,5-dimethylphenyl)-1-piperazinyl]-3-[3-(4-methylphenyl)-1,2,4-oxadiazol-5-yl]-1-propanone] |
| 30 µM | Cc1ccc(C)c(N2CCN(C(=O)CCc3nc(-c4ccc(C(F)(F)F)cc4)no3)CC2)c1 [1-[4-(2,5-dimethylphenyl)-1-piperazinyl]-3-[3-[4-(trifluoromethyl)phenyl]-1,2,4-oxadiazol-5-yl]-1-propanone] |
| 30 µM | COc1ccc(-c2noc(CCCCC(=O)N3CCN(c4cc(C)ccc4C)CC3)n2)cc1 [1-[4-(2,5-dimethylphenyl)-1-piperazinyl]-5-[3-(4-methoxyphenyl)-1,2,4-oxadiazol-5-yl]-1-pentanone] |
| 30 µM | COc1ccc(-c2noc(CC(=O)N3CCN(c4cc(C)ccc4C)CC3)n2)cc1 [1-[4-(2,5-dimethylphenyl)piperazin-1-yl]-2-[3-(4-methoxyphenyl)-1,2,4-oxadiazol-5-yl]ethanone] |
| 1.03 µM | Cc1cccc(-c2noc(CCC(=O)N3CCN(c4cc(C)ccc4C)CC3)n2)c1 [1-[4-(2,5-dimethylphenyl)piperazin-1-yl]-3-[3-(3-methylphenyl)-1,2,4-oxadiazol-5-yl]propan-1-one] |
| 0.305 µM | COc1ccc(-c2cc(CCC(=O)N3CCN(c4cc(C)ccc4C)CC3)on2)cc1 [1-[4-(2,5-dimethylphenyl)piperazin-1-yl]-3-[3-(4-methoxyphenyl)-1,2-oxazol-5-yl]propan-1-one] |
| 30 µM | COc1ccc(-c2coc(CCC(=O)N3CCN(c4cc(C)ccc4C)CC3)n2)cc1 [1-[4-(2,5-dimethylphenyl)piperazin-1-yl]-3-[4-(4-methoxyphenyl)-1,3-oxazol-2-yl]propan-1-one] |
| 30 µM | COc1ccc(-c2ccc(CCC(=O)N3CCN(c4cc(C)ccc4C)CC3)[nH]2)cc1 [1-[4-(2,5-dimethylphenyl)piperazin-1-yl]-3-[5-(4-methoxyphenyl)-1H-pyrrol-2-yl]propan-1-one] |
| 2.28 µM | COc1ccc(-c2noc(CCC(=O)N3CCN(c4ccccc4Cl)CC3)n2)cc1 [1-[4-(2-chlorophenyl)piperazin-1-yl]-3-[3-(4-methoxyphenyl)-1,2,4-oxadiazol-5-yl]propan-1-one] |
| 0.632 µM | COc1ccc(-c2noc(CCC(=O)N3CCN(c4ccccc4F)CC3)n2)cc1 [1-[4-(2-fluorophenyl)piperazin-1-yl]-3-[3-(4-methoxyphenyl)-1,2,4-oxadiazol-5-yl]propan-1-one] |
| 30 µM | COc1ccc(-c2noc(CCC(=O)N3CCN(c4cccc(Br)c4)CC3)n2)cc1 [1-[4-(3-bromophenyl)-1-piperazinyl]-3-[3-(4-methoxyphenyl)-1,2,4-oxadiazol-5-yl]-1-propanone] |
| 30 µM | COc1ccc(-c2noc(CCC(=O)N3CCN(c4cccc(F)c4)CC3)n2)cc1 [1-[4-(3-fluorophenyl)piperazin-1-yl]-3-[3-(4-methoxyphenyl)-1,2,4-oxadiazol-5-yl]propan-1-one] |
| 30 µM | COc1ccc(-c2noc(CCC(=O)N3CCN(c4ccc(Br)cc4)CC3)n2)cc1 [1-[4-(4-bromophenyl)piperazin-1-yl]-3-[3-(4-methoxyphenyl)-1,2,4-oxadiazol-5-yl]propan-1-one] |
| 30 µM | COc1ccc(-c2noc(CCC(=O)N3CCN(c4cccc(C(F)(F)F)c4)CC3)n2)cc1 [1-{3-[3-(4-methoxyphenyl)-1,2,4-oxadiazol-5-yl]propanoyl}-4-[3-(trifluoromethyl)phenyl]piperazine] |
| 4.2 µM | Cc1ccc(C)c(N2CCN(C(=O)CCc3nc(-c4ccccc4Br)no3)CC2)c1 [3-[3-(2-bromophenyl)-1,2,4-oxadiazol-5-yl]-1-[4-(2,5-dimethylphenyl)-1-piperazinyl]-1-propanone] |
| 30 µM | Cc1ccc(C)c(N2CCN(C(=O)CCc3nc(-c4ccccc4Cl)no3)CC2)c1 [3-[3-(2-chlorophenyl)-1,2,4-oxadiazol-5-yl]-1-[4-(2,5-dimethylphenyl)-1-piperazinyl]-1-propanone] |
| 30 µM | COc1ccc(-c2noc(CCC(=O)N3CCN(c4ccccc4)CC3)n2)cc1 [3-[3-(4-methoxyphenyl)-1,2,4-oxadiazol-5-yl]-1-(4-phenylpiperazin-1-yl)propan-1-one] |
| 30 µM | COc1ccc(-c2noc(CCC(=O)N3CCN(c4ccccc4OC)CC3)n2)cc1 [3-[3-(4-methoxyphenyl)-1,2,4-oxadiazol-5-yl]-1-[4-(2-methoxyphenyl)-1-piperazinyl]-1-propanone] |

| EC50 | Structure (SMILES) |
| --- | --- |
| 30 µM | COc1ccc(-c2noc(CCC(=O)N3CCN(c4ccc(OC)cc4)CC3)n2)cc1 [3-[3-(4-methoxyphenyl)-1,2,4-oxadiazol-5-yl]-1-[4-(4-methoxyphenyl)piperazin-1-yl]propan-1-one] |
| 30 µM | COc1ccc(-c2noc(CCC(=O)N3CCN(c4ccc(C)cc4)CC3)n2)cc1 [3-[3-(4-methoxyphenyl)-1,2,4-oxadiazol-5-yl]-1-[4-(4-methylphenyl)piperazin-1-yl]propan-1-one] |
| 30 µM | COc1ccc(-c2noc(CCC(=O)N3CCN(c4ccc(C(F)(F)F)cc4)CC3)n2)cc1 [3-[3-(4-methoxyphenyl)-1,2,4-oxadiazol-5-yl]-1-[4-[4-(trifluoromethyl)phenyl]piperazin-1-yl]propan-1-one] |
| 30 µM | COc1ccc(-c2noc(CCC(=O)N3CCN(c4cccc(OC)c4)CC3)n2)cc1 [KUC103349N] |
| 14.4 µM | COc1ccc(-c2noc(CCCC(=O)N3CCN(c4cc(C)ccc4C)CC3)n2)cc1 [KUC103353N] |
| 0.664 µM | Cc1ccc(C)c(N2CCN(C(=O)CCc3nc(-c4ccc(F)cc4)no3)CC2)c1 [KUC103364N] |
| 7.85 µM | Cc1ccc(C)c(N2CCN(C(=O)CCc3nc(-c4cccc(F)c4)no3)CC2)c1 [KUC103366N] |
| 3.51 µM | Cc1ccc(C)c(N2CCN(C(=O)CCc3nc(-c4cccc(Br)c4)no3)CC2)c1 [KUC103367N] |
| 2.24 µM | COc1ccc(-c2noc(CCC(=O)N3CCN(c4ccccc4Br)CC3)n2)cc1 [KUC103370N] |
| 0.708 µM | Cc1ccc(C)c(N2CCN(C(=O)CCc3nc(-c4cccc(C(F)(F)F)c4)no3)CC2)c1 [KUC103380N] |
| 30 µM | COc1ccc(-c2noc(CCC(=O)N3CCN(c4ccc(F)cc4)CC3)n2)cc1 [KUC103398N] |
| 30 µM | Cc1ccc(C)c(N2CCN(C(=O)CCc3nc(-c4ccccc4F)no3)CC2)c1 [KUC103401N] |
| 30 µM | Cc1ccc(C)c(N2CCN(C(=O)CCc3nc(-c4ccc(N(C)C)cc4)no3)CC2)c1 [KUC103409N] |
| 1.33 µM | COc1ccc(-c2noc(CCC(=O)N3CCC(c4cc(C)ccc4C)CC3)n2)cc1 [KUC103432N] |
| 30 µM | COc1ccc(-c2ccc(CCC(=O)N3CCN(c4cc(C)ccc4C)CC3)o2)cc1 [KUC103447N] |
| 1.16 µM | Cc1ccc(C)c(N2CCN(C(=O)CCc3nc(-c4ccccc4)no3)CC2)c1 [UNM-0000306070] |
| 30 µM | COc1ccccc1-c1noc(CCC(=O)N2CCN(c3cc(C)ccc3C)CC2)n1 [UNM-0000306071] |
| 1.6 µM | Cc1ccc(C)c(N2CCN(C(=O)CCc3nc(-c4ccc(Br)cc4)no3)CC2)c1 [UNM-0000306072] |
| 1.95 µM | COc1ccc(-c2noc(CCC(=O)N3CCN(c4ccccc4C(F)(F)F)CC3)n2)cc1 [UNM-0000306082] |
| 2.91 µM | Cc1ccc(C)c(N2CCN(C(=O)CCc3nc(-c4ccc(Cl)cc4)no3)CC2)c1 [UNM-0000306083] |
| 30 µM | Cc1ccc(C)c(N2CCN(C(=O)CCc3nc(-c4cccc(Cl)c4)no3)CC2)c1 [UNM-0000306086] |
| 30 µM | COc1ccc(-c2noc(CCC(=O)N3CCN(c4ccc(Cl)cc4)CC3)n2)cc1 [UNM-0000306121] |
| 30 µM | COc1ccc(-c2noc(CCC(=O)N3CCN(c4cccc(C)c4)CC3)n2)cc1 [UNM-0000306125] |
| 30 µM | COc1ccc(-c2cccc(CCC(=O)N3CCN(c4cc(C)ccc4C)CC3)c2)cc1 [UNM-0000306127] |
| 30 µM | COc1ccc(-c2cc(CCC(=O)N3CCN(c4cc(C)ccc4C)CC3)[nH]n2)cc1 [UNM-0000306150] |
